Experimental data as given in patent US10092551B2, “Spiro-thiazolones” (Hoffmann-La Roche Inc., priority 2014, dated 2018).

molecular target: human V1a receptor (Homo sapiens (Human), UniProt P37288); assay: human V1a receptor binding studies (3H-Vasopressin, SPA beads); conditions: membranes of HEK293 cells transiently transfected with human V1a receptor, Ki by Cheng-Prussoff
Summary of the method: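 Membranes from HEK293 cells transiently expressing cloned human V1a receptor, bound on yttrium silicate SPA beads with 4 nM 3H-vasopressin (added stock) and serially diluted compound, 1 h at room temperature. Non-specific binding defined with cold vasopressin; IC50 by non-linear regression, Ki via Cheng-Prusoff.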

Chain of human V1a receptor (P37288 whole entry): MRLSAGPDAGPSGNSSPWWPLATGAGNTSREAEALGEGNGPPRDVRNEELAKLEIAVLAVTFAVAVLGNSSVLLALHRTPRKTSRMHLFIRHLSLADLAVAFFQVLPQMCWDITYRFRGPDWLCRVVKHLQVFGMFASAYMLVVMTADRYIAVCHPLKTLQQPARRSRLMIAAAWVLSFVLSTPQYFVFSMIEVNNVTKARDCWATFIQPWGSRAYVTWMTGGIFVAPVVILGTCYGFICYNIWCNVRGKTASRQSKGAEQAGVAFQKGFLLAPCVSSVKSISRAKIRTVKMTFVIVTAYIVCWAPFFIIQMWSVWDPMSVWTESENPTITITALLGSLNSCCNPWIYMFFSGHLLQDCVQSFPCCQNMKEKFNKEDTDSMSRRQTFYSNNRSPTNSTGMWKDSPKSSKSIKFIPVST

Row | Compound | pKi hV1a
1 | O=C1N=C(N2CCC3(CC2)OCc2ccccc23)SC1=C(c1ccccc1)c1ccccc1 [Example 82, 5-(diphenylmethylidene)-2-(1′H,3H-spiro[2-benzofuran-1,4′-piperidin]-1′-yl)-1,3-thiazol-4(5H)-one] | 8.4
2 | C/C(=C1/SC(N2CCC3(CC2)OCc2ccccc23)=NC1=O)c1cccnc1Cl [Example 83, (5Z)-5-[1-(2-chloropyridin-3-yl)ethylidene]-2-(1′H,3H-spiro[2-benzofuran-1,4′-piperidin]-1′-yl)-1,3-thiazol-4(5H)-one] | 8.8
3 | C/C(=C1\SC(N2CCC3(CC2)OCc2ccccc23)=NC1=O)c1cccnc1Cl [Example 84, (5E)-5-[1-(2-chloropyridin-3-yl)ethylidene]-2-(1′H,3H-spiro[2-benzofuran-1,4′-piperidin]-1′-yl)-1,3-thiazol-4(5H)-one] | 7.7
4 | COc1ccc(/C(C)=C2\SC(N3CCC4(CC3)OCc3ccccc34)=NC2=O)cn1 [Example 85, (5E/Z)-5-[1-(6-methoxypyridin-3-yl)ethylidene]-2-(1′H,3H-spiro[2-benzofuran-1,4′-piperidin]-1′-yl)-1,3-thiazol-4(5H)-one] | 8.4
5 | C/C(=C1/SC(N2CCC3(CC2)OCc2ccccc23)=NC1=O)c1oc(C)nc1C [Example 86, (5E/Z)-5-[1-(2,4-dimethyl-1,3-oxazol-5-yl)ethylidene]-2-(1′H,3H-spiro[2-benzofuran-1,4′-piperidin]-1′-yl)-1,3-thiazol-4(5H)-one] | 8.9
6 | O=C1N=C(N2CCC3(CC2)OCc2ccccc23)S/C1=C1/COCc2ccccc21 [Example 87, (5E/Z)-5-(1H-isochromen-4(3H)-ylidene)-2-(1′H,3H-spiro[2-benzofuran-1,4′-piperidin]-1′-yl)-1,3-thiazol-4(5H)-one] | 8.9
7 | CC(C)(C)OC(=O)N1CCC/C(=C2/SC(N3CCC4(CC3)OCc3ccccc34)=NC2=O)C1 [Example 88, tert-butyl (3E/Z)-3-[4-oxo-2-(1′H,3H-spiro[2-benzofuran-1,4′-piperidin]-1′-yl)-1,3-thiazol-5(4H)-ylidene]piperidine-1-carboxylate] | 6.7
8 | O=C1N=C(N2CCC3(CC2)OCc2ccccc23)S/C1=C1/CCCCc2ccc(Cl)cc21 [Example 89, (5E/Z)-5-(3-chloro-6,7,8,9-tetrahydro-5H-benzo[7]annulen-5-ylidene)-2-(1′H,3H-spiro[2-benzofuran-1,4′-piperidin]-1′-yl)-1,3-thiazol-4(5H)-one] | 9.0
9 | O=C1N=C(N2CCC3(CC2)OCc2ccccc23)S/C1=C\c1ccccn1 [Example 90, (5Z)-5-(pyridin-2-ylmethylidene)-2-(1′H,3H-spiro[2-benzofuran-1,4′-piperidin]-1′-yl)-1,3-thiazol-4(5H)-one] | 7.3
10 | Cc1cc(/C=C2\SC(N3CCC4(CC3)OCc3ccccc34)=NC2=O)no1 [Example 91, 5-[(5-methyl-1,2-oxazol-3-yl)methylidene]-2-(1′H,3H-spiro[2-benzofuran-1,4′-piperidin]-1′-yl)-1,3-thiazol-4(5H)-one] | 7.5
11 | COC/C(=C1/SC(N2CCC3(CC2)OCc2ccccc23)=NC1=O)c1ccccc1 [Example 92, (5E)-5-(2-methoxy-1-phenylethylidene)-2-(1′H,3H-spiro[2-benzofuran-1,4′-piperidin]-1′-yl)-1,3-thiazol-4(5H)-one] | 9.0
12 | Cc1cc(/C=C2\SC(N3CCC4(CC3)OCc3ccccc34)=NC2=O)no1 [Example 93, 5-[(5-methyl-1,2-oxazol-3-yl)methylidene]-2-(1′H,3H-spiro[2-benzofuran-1,4′-piperidin]-1′-yl)-1,3-thiazol-4(5H)-one] | 8.1
13 | O=C1N=C(N2CCC3(CC2)OCc2ccccc23)S/C1=C\c1cccnc1 [Example 94, 5-(pyridin-3-ylmethylidene)-2-(1′H,3H-spiro[2-benzofuran-1,4′-piperidin]-1′-yl)-1,3-thiazol-4(5H)-one] | 7.1
14 | O=C1N=C(N2CCC3(CC2)OCc2ccccc23)S/C1=C\c1ccncc1 [Example 95, 5-(pyridin-4-ylmethylidene)-2-(1′H,3H-spiro[2-benzofuran-1,4′-piperidin]-1′-yl)-1,3-thiazol-4(5H)-one] | 7.1
15 | C/C(=C1/SC(N2CCC3(CC2)OCc2ccccc23)=NC1=O)c1ccc(Cl)nc1 [Example 96, (5Z)-5-[1-(6-chloropyridin-3-yl)ethylidene]-2-(1′H,3H-spiro[2-benzofuran-1,4′-piperidin]-1′-yl)-1,3-thiazol-4(5H)-one] | 9.4
16 | O=C1N=C(N2CCC3(CC2)OCc2ccccc23)SC1=C1c2ccccc2CCc2ccccc21 [Example 98, 5-(10,11-dihydro-5H-dibenzo[a,d][7]annulen-5-ylidene)-2-(1′H,3H-spiro[2-benzofuran-1,4′-piperidin]-1′-yl)-1,3-thiazol-4(5H)-one] | 8.6

Row | Compound | pKi hV1a
17 | O=C1N=C(N2CCC3(CC2)OCc2ccccc23)SC1=C1c2ccccc2C=Cc2ccccc21 [Example 99, 5-(5H-dibenzo[a,d][7]annulen-5-ylidene)-2-(1′H,3H-spiro[2-benzofuran-1,4′-piperidin]-1′-yl)-1,3-thiazol-4(5H)-one] | 8.4
18 | O=C1N=C(N2CCC3(CC2)OCc2ccccc23)SC1=C(c1ccc(Cl)cc1)c1ccc(Cl)cc1 [Example 100, 5-[bis(4-chlorophenyl)methylidene]-2-(1′H,3H-spiro[2-benzofuran-1,4′-piperidin]-1′-yl)-1,3-thiazol-4(5H)-one] | 7.1
19 | O=C1N=C(N2CCC3(CC2)OCc2ccccc23)SC1=C(c1ccc(F)cc1)c1ccc(F)cc1 [Example 101, 5-[bis(4-fluorophenyl)methylidene]-2-(1′H,3H-spiro[2-benzofuran-1,4′-piperidin]-1′-yl)-1,3-thiazol-4(5H)-one] | 8.0
20 | O=C1N=C(N2CCC3(CC2)OCc2ccccc23)SC1=C1c2ccccc2Sc2ccccc21 [Example 102, 2-(1′H,3H-spiro[2-benzofuran-1,4′-piperidin]-1′-yl)-5-(9H-thioxanthen-9-ylidene)-1,3-thiazol-4(5H)-one] | 8.6
21 | O=C1N=C(N2CCC3(CC2)OCc2ccccc23)SC1=C1c2ccccc2Oc2ccccc21 [Example 103, 2-(1′H,3H-spiro[2-benzofuran-1,4′-piperidin]-1′-yl)-5-(9H-xanthen-9-ylidene)-1,3-thiazol-4(5H)-one] | 8.6
22 | O=C1N=C(N2CCC3(CC2)OCc2ccccc23)SC1=C1c2ccccc2-c2ccccc21 [Example 104, 5-(9H-fluoren-9-ylidene)-2-(1′H,3H-spiro[2-benzofuran-1,4′-piperidin]-1′-yl)-1,3-thiazol-4(5H)-one] | 8.2
23 | C/C(=C1\SC(N2CCC3(CC2)OCc2ccccc23)=NC1=O)c1c(C)noc1C [Example 106, (5E)-5-[1-(3,5-dimethyl-1,2-oxazol-4-yl)ethylidene]-2-(1′H,3H-spiro[2-benzofuran-1,4′-piperidin]-1′-yl)-1,3-thiazol-4(5H)-one] | 7.3
24 | C/C(=C1/SC(N2CCC3(CC2)OCc2ccccc23)=NC1=O)c1ncc[nH]1 [Example 107, (5Z)-5-[1-(1H-imidazol-2-yl)ethylidene]-2-(1′H,3H-spiro[2-benzofuran-1,4′-piperidin]-1′-yl)-1,3-thiazol-4(5H)-one] | 6.8
25 | C/C(=C1/SC(N2CCC3(CC2)OCc2ccccc23)=NC1=O)c1cc2ncccc2o1 [Example 108, (5E/Z)-5-[1-(furo[3,2-b]pyridin-2-yl)ethylidene]-2-(1′H,3H-spiro[2-benzofuran-1,4′-piperidin]-1′-yl)-1,3-thiazol-4(5H)-one] | 7.0
26 | C/C(=C1/SC(N2CCC3(CC2)OCc2ccccc23)=NC1=O)c1nc[nH]c1C [Example 109, (5E/Z)-5-[1-(5-methyl-1H-1-imidazol-4-yl)ethylidene]-2-(1′H,3H-spiro[2-benzofuran-1,4′-piperidin]-1′-yl)-1,3-thiazol-4(5H)-one] | 6.6
27 | O=C1N=C(N2CCC3(CC2)OCc2ccccc23)SC1=C(c1ccccn1)c1ccccn1 [Example 110, 5-[di(pyridin-2-yl)methylidene]-2-(1′H,3H-spiro[2-benzofuran-1,4′-piperidin]-1′-yl)-1,3-thiazol-4(5H)-one] | 7.6
28 | O=C1N=C(N2CCC3(CC2)OCc2ccccc23)SC1=C(C(F)(F)F)C(F)(F)F [Example 111, 5-(1,1,1,3,3,3-hexafluoropropan-2-ylidene)-2-(1′H,3H-spiro[2-benzofuran-1,4′-piperidin]-1′-yl)-1,3-thiazol-4(5H)-one] | 7.5
29 | C/C(=C1/SC(N2CCC3(CC2)OCc2ccccc23)=NC1=O)c1sc(C)nc1C [Example 112, (5E/Z)-5-[1-(2,4-dimethyl-1,3-thiazol-5-yl)ethylidene]-2-(1′H,3H-spiro[2-benzofuran-1,4′-piperidin]-1′-yl)-1,3-thiazol-4(5H)-one] | 8.6
30 | O=C1N=C(N2CCC3(CC2)OCc2ccccc23)SC1=C(CCl)CCl [Example 113, 5-(1,3-dichloropropan-2-ylidene)-2-(1′H,3H-spiro[2-benzofuran-1,4′-piperidin]-1′-yl)-1,3-thiazol-4(5H)-one] | 7.0
31 | CCCC(CCC)=C1SC(N2CCC3(CC2)OCc2ccccc23)=NC1=O [Example 114, 5-(heptan-4-ylidene)-2-(1′H,3H-spiro[2-benzofuran-1,4′-piperidin]-1′-yl)-1,3-thiazol-4(5H)-one] | 8.9
32 | O=C1N=C(N2CCC3(CC2)OCc2ccccc23)SC1=C(C1CC1)C1CC1 [Example 115, 5-(dicyclopropylmethylidene)-2-(1′H,3H-spiro[2-benzofuran-1,4′-piperidin]-1′-yl)-1,3-thiazol-4(5H)-one] | 8.9
